Positions of bridges follow the written chain, without caps; N, C: chain ends. Residues, ends and D or L forms follow the SMILES beside them.
Test: Membrane partitioning of toxins into lipid vesicles measured using Trp fluorescence
Format: physicochemical
Settings: Trp fluorescence, excitation 280 nm, F/F0 at 320 nm; LUVs 1:1 POPC:POPG extruded through 100 nm; toxin 2 or 5 µM in 10 mM HEPES, 1 mM EDTA, pH 7.0; available lipid 60% of total; fit of partition function; ± SEM, n = 3 or 4; SEM
Source text: Motivated by the amphipathic character evident in the structure of DkTx, together with the placement of the toxin at the protein-lipid interface when bound to TRPV1, we investigated the interaction of DkTx and each of its two lobes with lipid membranes. For these experiments, we took advantage of the presence of a single conserved and solvent accessible Trp residue in loop 2 of both K1 and K2 (Figure 1C,D; W11 and W53), and used Trp fluorescence to monitor the partitioning of the toxin from the aqueous solution into the membrane environment ([Gupta et al., 2015]; [Ladokhin et al., 2000]; [Milescu et al., 2007]). When aqueous solutions of DkTx were excited at a wavelength of 280 nm, emission spectra with maxima at 353 nm were obtained (Figure 5A, left), as expected for Trp residues residing in such an environment. […] To quantify the extent of partitioning as a function of lipid concentration, we measured the relative fluorescence intensity in a blue-shifted region of the spectra (e.g. 320 nm) as a function of lipid concentration, and fit a partition function to the data to obtain a mole-fraction partition coefficient (Kx) of (2.3 ± 0.7) × 10^6, indicating an energetically favorable interaction of DkTx with lipid membranes (Figure 5A, right). This strong interaction of DkTx with membranes would facilitate binding of the toxin to the channel by increasing the local concentration of the toxin near the channel and by a reduction in the dimensionality of diffusion within the membrane ([Axelrod and Wang, 1994]).
Figure 5. Interaction of DkTx and toxin constructs with lipid membranes measured using Trp fluorescence. (A–E, left panel) Trp emission spectra of DkTx (A), K1 without linker (B), K2 (C), bivalent K1 (K1K1) (D) and bivalent K2 (K2K2) (E) in the absence (black) and presence (blue, 1.6 mM for DkTx, 2 mM for K1-ΔL and K1K1, and 3 mM for K2 and K2K2) of lipid vesicles (1:1 mix of POPC:POPG). (A–E, right panel) Relative fluorescence intensity at 320 nm (F/F0) as a function of available lipid concentrations (60% of total lipid concentration). Smooth curves correspond to partition functions with Kx = (2.3 ± 0.7) × 10^6 and F/F0^max = 2.65 ± 0.08 for DkTx, Kx = (3.9 ± 1.1) × 10^5 and F/F0^max = 2.63 ± 0.07 for K1-ΔL, Kx = (2.0 ± 0.3) × 10^4 and F/F0^max = 3.71 ± 0.40 for K2, Kx = (2.9 ± 0.3) × 10^6 and F/F0^max = 2.47 ± 0.03 for K1K1 and Kx = (8.1 ± 2) × 10^5 and F/F0^max = 2.77 ± 0.55 for K2K2. Error bars correspond to SEM (n = 3 or 4). Partition functions for K1-ΔL and K2 are shown as dotted lines for comparison in D and E, respectively. (F) Comparisons of mole-fraction partition coefficient (Kx) of toxins. 7G-DkTx denotes a construct of DkTx whose linker (PYVPVTT) is replaced with 7 Gly residues. Error bars correspond to SEM (n = 3 or 4). DOI: http://dx.doi.org/10.7554/eLife.11273.020 Figure 5—figure supplement 1. Interaction of K1-K2 chimeras with lipid membranes measured using Trp fluorescence. (A–E, left panel) Trp emission spectra of K1(D1N) (A), K1(K2L2) (B), K1(K2L3) (C), K1(K2L4) (D) and K1(K2CT) (E) in the absence (black) and presence (blue, 2 mM) of lipid vesicles (1:1 mix of POPC:POPG). (A–D, right panel) Relative fluorescence intensity at 320 nm (F/F0) as a function of available lipid concentrations (60% of total lipid concentration). Smooth curves correspond to partition functions with Kx = (1.76 ± 0.06) × 10^6 and F/F0^max = 3.79 ± 0.02 for K1(D1N), Kx = (4.77 ± 1.39) × 10^5 and F/F0^max = 1.31 ± 0.02 for K1(K2L2), Kx = (1.02 ± 0.04) × 10^4 and F/F0^max = 3.69 ± 0.02 for K1(K2L3), and Kx = (0.90 ± 0.04) × 10^6 and F/F0^max = 2.59 ± 0.02 for K1(K2L4). Error bar corresponds to SEM (n = 3 or 4). Smooth curve of K1-ΔL was shown as a dotted line for comparison throughout the figures. (F) Comparisons of mole-fraction partition coefficient (Kx) of toxins. Error bars correspond to SEM (n = 3 or 4). DOI: http://dx.doi.org/10.7554/eLife.11273.021 [drawing 10] […]

Row | Compound | mole-fraction partition coefficient (Kx)
1 | CC[C@H](C)[C@@H]1NC(=O)[C@H](Cc2ccccc2)NC(=O)[C@H](CCC(=O)O)NC(=O)[C@H](CCSC)NC(=O)[C@@H]2CCCN2C(=O)[C@@H]2CSSC[C@@H]3NC(=O)[C@H](C(C)C)NC(=O)[C@H](CCC(=O)O)NC(=O)CNC(=O)[C@H](CCC(=O)O)NC(=O)[C@H](CCCCN)NC(=O)[C@H](C)NC(=O)[C@@H](NC(=O)[C@@H](N)CC(N)=O)CSSC[C@H](NC(=O)[C@H](CSSC[C@@H](C(=O)N[C@@H](CCCCN)C(=O)N[C@@H](CCCCN)C(=O)N[C@@H](Cc4ccc(O)cc4)C(=O)N[C@@H](CCCCN)C(=O)O)NC(=O)[C@H](Cc4c[nH]cn4)NC(=O)[C@@H]4CCCN4C1=O)NC(=O)[C@H](CCCCN)NC(=O)[C@H](CCCCN)NC(=O)CNC(=O)[C@H](Cc1c[nH]c4ccccc14)NC(=O)[C@H](CO)NC3=O)C(=O)N[C@@H](CC(=O)O)C(=O)N[C@@H](CC(C)C)C(=O)N[C@@H](CC(=O)O)C(=O)N[C@@H](CC(N)=O)C(=O)N[C@@H](Cc1ccccc1)C(=O)N[C@@H](Cc1ccc(O)cc1)C(=O)N2 [K1(D1N)] (H-NCAKEGEVCSWGKKCCDLDNFYCPMEFIPHCKKYK-OH; disulfide 2-16, 9-23, 15-31) | (1.76 ± 0.06) × 10^6
2 | CC[C@H](C)[C@@H]1NC(=O)[C@H](Cc2ccccc2)NC(=O)[C@H](CCC(=O)O)NC(=O)[C@H](CCSC)NC(=O)[C@@H]2CCCN2C(=O)[C@@H]2CSSC[C@@H]3NC(=O)[C@H](C(C)C)NC(=O)[C@H](CCC(=O)O)NC(=O)CNC(=O)[C@H](CCC(=O)O)NC(=O)[C@H](CCCCN)NC(=O)[C@H](C)NC(=O)[C@@H](NC(=O)[C@@H](N)CC(=O)O)CSSC[C@H](NC(=O)[C@H](CSSC[C@@H](C(=O)N[C@@H](CCCCN)C(=O)N[C@@H](CCCCN)C(=O)N[C@@H](Cc4ccc(O)cc4)C(=O)N[C@@H](CCCCN)C(=O)O)NC(=O)[C@H](Cc4c[nH]cn4)NC(=O)[C@@H]4CCCN4C1=O)NC(=O)[C@H](CCCCN)NC(=O)[C@H](CCCCN)NC(=O)CNC(=O)[C@H](Cc1c[nH]c4ccccc14)NC(=O)[C@H](CO)NC3=O)C(=O)N[C@@H](Cc1c[nH]cn1)C(=O)NCC(=O)N[C@@H](CC(C)C)C(=O)N[C@@H](CC(=O)O)C(=O)N2 [K1(K2L3)] (H-DCAKEGEVCSWGKKCCHGLDCPMEFIPHCKKYK-OH; disulfide 2-16, 9-21, 15-29) | (1.02 ± 0.04) × 10^4
3 | CC[C@H](C)[C@@H]1NC(=O)[C@H](Cc2ccccc2)NC(=O)[C@H](CCC(=O)O)NC(=O)[C@H](CCSC)NC(=O)[C@@H]2CCCN2C(=O)[C@@H]2CSSC[C@@H]3NC(=O)[C@H](C(C)C)NC(=O)[C@H](CCC(=O)O)NC(=O)CNC(=O)[C@H](CCC(=O)O)NC(=O)[C@H](CCCCN)NC(=O)[C@H](C)NC(=O)[C@@H](NC(=O)[C@@H](N)CC(=O)O)CSSC[C@H](NC(=O)[C@H](CSSC[C@@H](C(=O)N[C@@H](CCCCN)C(=O)N[C@@H](CCCCN)C(=O)N[C@@H](Cc4ccc(O)cc4)C(=O)N[C@@H](CCCCN)C(=O)O)NC(=O)[C@H](Cc4c[nH]cn4)NC(=O)[C@@H]4CCCN4C1=O)NC(=O)[C@H](CCCCN)NC(=O)[C@H](CO)NC(=O)CNC(=O)[C@H](Cc1c[nH]c4ccccc14)NC(=O)CNC3=O)C(=O)N[C@@H](CC(=O)O)C(=O)N[C@@H](CC(C)C)C(=O)N[C@@H](CC(=O)O)C(=O)N[C@@H](CC(N)=O)C(=O)N[C@@H](Cc1ccccc1)C(=O)N[C@@H](Cc1ccc(O)cc1)C(=O)N2 [K1(K2L2)] (H-DCAKEGEVCGWGSKCCDLDNFYCPMEFIPHCKKYK-OH; disulfide 2-16, 9-23, 15-31) | (4.77 ± 1.39) × 10^5
4 | CC[C@H](C)[C@@H]1NC(=O)[C@H](Cc2ccccc2)NC(=O)[C@H](C)NC(=O)[C@H](CC(C)C)NC(=O)[C@@H]2CCCN2C(=O)[C@@H]2CSSC[C@@H]3NC(=O)[C@H](C(C)C)NC(=O)[C@H](CCC(=O)O)NC(=O)CNC(=O)[C@H](CCC(=O)O)NC(=O)[C@H](CCCCN)NC(=O)[C@H](C)NC(=O)[C@@H](NC(=O)[C@@H](N)CC(=O)O)CSSC[C@H](NC(=O)[C@H](CSSC[C@@H](C(=O)N[C@@H](CCCCN)C(=O)N[C@@H](CCCCN)C(=O)N[C@@H](Cc4ccc(O)cc4)C(=O)N[C@@H](CCCCN)C(=O)O)NC(=O)[C@H](Cc4ccc(O)cc4)NC(=O)[C@@H]4CCCN4C1=O)NC(=O)[C@H](CCCCN)NC(=O)[C@H](CCCCN)NC(=O)CNC(=O)[C@H](Cc1c[nH]c4ccccc14)NC(=O)[C@H](CO)NC3=O)C(=O)N[C@@H](CC(=O)O)C(=O)N[C@@H](CC(C)C)C(=O)N[C@@H](CC(=O)O)C(=O)N[C@@H](CC(N)=O)C(=O)N[C@@H](Cc1ccccc1)C(=O)N[C@@H](Cc1ccc(O)cc1)C(=O)N2 [K1(K2L4)] (H-DCAKEGEVCSWGKKCCDLDNFYCPLAFIPYCKKYK-OH; disulfide 2-16, 9-23, 15-31) | (0.90 ± 0.04) × 10^6
5 | CC[C@H](C)[C@@H]1NC(=O)[C@H](Cc2ccccc2)NC(=O)[C@H](CCC(=O)O)NC(=O)[C@H](CCSC)NC(=O)[C@@H]2CCCN2C(=O)[C@@H]2CSSC[C@@H]3NC(=O)[C@H](C(C)C)NC(=O)[C@H](CCC(=O)O)NC(=O)CNC(=O)[C@H](CCC(=O)O)NC(=O)[C@H](CCCCN)NC(=O)[C@H](C)NC(=O)[C@@H](NC(=O)[C@@H](N)CC(=O)O)CSSC[C@H](NC(=O)[C@H](CSSC[C@@H](C(=O)N[C@@H](CCCCN)C(=O)N[C@@H](CCCCN)C(=O)N[C@@H](Cc4ccc(O)cc4)C(=O)N[C@@H](CCCCN)C(=O)O)NC(=O)[C@H](Cc4c[nH]cn4)NC(=O)[C@@H]4CCCN4C1=O)NC(=O)[C@H](CCCCN)NC(=O)[C@H](CCCCN)NC(=O)CNC(=O)[C@H](Cc1c[nH]c4ccccc14)NC(=O)[C@H](CO)NC3=O)C(=O)N[C@@H](CC(=O)O)C(=O)N[C@@H](CC(C)C)C(=O)N[C@@H](CC(=O)O)C(=O)N[C@@H](CC(N)=O)C(=O)N[C@@H](Cc1ccccc1)C(=O)N[C@@H](Cc1ccc(O)cc1)C(=O)N2 [K1-ΔL] (H-DCAKEGEVCSWGKKCCDLDNFYCPMEFIPHCKKYK-OH; disulfide 2-16, 9-23, 15-31) | (3.9 ± 1.1) × 10^5

Reference: publication PMC4764579, “Structural insights into the mechanism of activation of the TRPV1 channel by a membrane-bound tarantula toxin” (eLife, 2016)
